Test results reported in ChEMBL document CHEMBL6178014, “Discovery and Administration Optimization of Novel Selective CDK9 Inhibitor, 1-7a-B1, for Improved Pharmacokinetics and Antitumor Efficacy In Vivo” (J Med Chem, 2025).
The source made the active and inactive calls. The rule behind the calls is not given here.

Experiments:
[1] = Tmax in Sprague-Dawley rat at 30 mg/kg, po as submicron emulsion measured after 24 hrs by LC-MS/MS analysis; type: ADME, organism-based; conditions: in vivo
HCT-116 [2] = experiment: Downregulation of c-Myc level in human HCT-116 cells at 200 to 400 nM incubated for 48 hrs by Western blot analysis; type: functional, cell-based; conditions: dose 200-400 nM
A549 = experiment: Cytotoxicity against human A549 cells assessed as cell viability incubated for 48 hrs by CCK8 assay; type: functional, cell-based
CYP2C9 = CYP2C9 (Homo sapiens, UniProt P11712); experiment: Inhibition of CYP2C9 in human liver microsome at 10 uM pre-incubated with compound for 10 mins in presence of NADPH-regenerating system by LC-MS/MS analysis relative to control; type: ADME; conditions: liver microsomes
Chain of CYP2C9 (P11712 whole entry): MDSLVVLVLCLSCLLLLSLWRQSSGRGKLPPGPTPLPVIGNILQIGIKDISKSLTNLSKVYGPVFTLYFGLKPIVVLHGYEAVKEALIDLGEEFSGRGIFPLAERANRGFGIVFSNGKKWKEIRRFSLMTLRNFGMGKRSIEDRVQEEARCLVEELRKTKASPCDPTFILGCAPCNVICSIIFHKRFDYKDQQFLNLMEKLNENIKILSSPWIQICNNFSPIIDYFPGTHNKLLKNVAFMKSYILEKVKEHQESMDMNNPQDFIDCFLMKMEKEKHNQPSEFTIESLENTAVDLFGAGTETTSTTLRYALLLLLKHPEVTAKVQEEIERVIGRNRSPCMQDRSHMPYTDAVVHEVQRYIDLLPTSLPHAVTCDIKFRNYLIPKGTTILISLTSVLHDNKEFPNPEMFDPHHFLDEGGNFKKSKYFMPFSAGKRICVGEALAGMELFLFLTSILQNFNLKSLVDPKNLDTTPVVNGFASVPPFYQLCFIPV

PANC-1 = experiment: Cytotoxicity against human PANC-1 cells assessed as cell viability incubated for 48 hrs by CCK8 assay; type: functional, cell-based
HCT-116 [3] = experiment: Downregulation of c-Myc mRNA level in human HCT-116 cells at 200 to 400 nM incubated for 48 hrs by qRT-PCR analysis; type: functional, cell-based; conditions: dose 200-400 nM
[4] = AUC (0 to t) in Sprague-Dawley rat at 30 mg/kg, po as submicron emulsion measured after 24 hrs by LC-MS/MS analysis; type: ADME, organism-based; conditions: in vivo
CDK4/Cyclin D3 = CDK4/Cyclin D3 (Homo sapiens, UniProt P11802); experiment: Inhibition of CDK4/cycD3 (unknown origin) by ADP-Glo assay; type: protein-complex assay
Chain of CDK4/Cyclin D3 (P11802 whole entry): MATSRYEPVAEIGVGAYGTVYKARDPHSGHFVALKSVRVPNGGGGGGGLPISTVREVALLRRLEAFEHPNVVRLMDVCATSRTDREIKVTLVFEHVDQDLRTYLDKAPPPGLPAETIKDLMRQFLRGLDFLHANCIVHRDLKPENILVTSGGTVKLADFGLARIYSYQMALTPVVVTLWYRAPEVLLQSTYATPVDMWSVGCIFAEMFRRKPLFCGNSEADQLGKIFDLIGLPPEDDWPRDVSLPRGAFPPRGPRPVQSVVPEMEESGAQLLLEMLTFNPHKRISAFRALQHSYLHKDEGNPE
Chain of CDK4/Cyclin D3 (P30281 whole entry, further chain): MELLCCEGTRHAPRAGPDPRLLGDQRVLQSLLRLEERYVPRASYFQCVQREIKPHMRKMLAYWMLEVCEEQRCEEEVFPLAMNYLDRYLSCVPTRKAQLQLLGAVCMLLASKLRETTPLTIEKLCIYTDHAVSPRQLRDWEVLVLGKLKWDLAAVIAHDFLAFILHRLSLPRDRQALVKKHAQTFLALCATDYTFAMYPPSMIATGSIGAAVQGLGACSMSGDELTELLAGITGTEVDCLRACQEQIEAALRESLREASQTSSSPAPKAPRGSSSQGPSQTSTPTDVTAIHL

[5] = Oral bioavailability in Sprague-Dawley rat at 30 mg/kg as submicron emulsion measured after 24 hrs by LC-MS/MS analysis; type: ADME, organism-based; conditions: in vivo
HCT-116 [6] = experiment: Antitumor activity against human HCT-116 cells xenografted in female BALB/c nu-nu mouse assessed as increase in caspase-3 cleavage at 40 mg/kg, po incubated for 48 hrs by Western blot analysis; type: functional, organism-based
[7] = Toxicity in female BALB/c nu-nu mouse xenografted with human HCT-116 cells assessed as body weight loss at 40 mg/kg, po administered once daily for 3 weeks; type: organism-based; conditions: in vivo, 504 h
HCT-116 [8] = experiment: Antitumor activity against human HCT-116 cells xenografted in female BALB/c nu-nu mouse assessed as downregulation of Mcl-1 mRNA expression at 40 mg/kg, po incubated for 48 hrs by qRT-PCR analysis; type: functional, organism-based
HCT-116 [9] = experiment: Effect on MDM2 expression in human HCT-116 cells at 100 to 400 nM incubated for 48 hrs by Western blot analysis; type: functional, cell-based; conditions: dose 100-400 nM
[10] = Metabolic stability in human liver assessed as intrinsic clearance at 100 uM pre-incubated with compound for 60 mins followed by NADPH addition and measured up to 60 mins by LC-MS/MS analysis; type: ADME, tissue-based; conditions: read-out: CLH
HCT-116 [11] = experiment: Downregulation of Mcl-1 mRNA level in human HCT-116 cells at 200 to 400 nM incubated for 48 hrs by qRT-PCR analysis; type: functional, cell-based; conditions: dose 200-400 nM
[12] = Toxicity in female BALB/c nu-nu mouse xenografted with human HCT-116 cells assessed as histopathological changes in heart at 20 mg/kg, po as submicron emulsion administered once daily for 3 weeks by H and E staining based analysis; type: organism-based; conditions: in vivo, 504 h
HCT-116 [13] = experiment: Antitumor activity against human HCT-116 cells xenografted in female BALB/c nu-nu mouse assessed as reduction in Ki67 positive cells at 20 mg/kg, po as submicron emulsion by staining based analysis; type: functional, organism-based
[14] = Toxicity in female BALB/c nu-nu mouse xenografted with human HCT-116 cells assessed as histopathological changes in spleen at 40 mg/kg, po administered once daily for 3 weeks by H and E staining based analysis; type: organism-based; conditions: in vivo, 504 h
[15] = AUC (0 to infinity) in Sprague-Dawley rat at 2 mg/kg, iv measured after 24 hrs by LC-MS/MS analysis; type: ADME, organism-based; conditions: in vivo
[16] = Cmax in Sprague-Dawley rat at 30 mg/kg, po measured after 24 hrs by LC-MS/MS analysis; type: ADME, organism-based; conditions: in vivo
HCT-116 [17] = experiment: Inhibition of wild type p53/MDM2 protein-protein interaction in human HCT-116 cells at 200 nM incubated for 48 hrs by co-immunoprecipitation (Co-IP) analysis; type: cell-based
[18] = Volume of distribution in Sprague-Dawley rat at 30 mg/kg, po as submicron emulsion measured after 24 hrs by LC-MS/MS analysis; type: ADME, organism-based; conditions: in vivo
HCT-116 [19] = experiment: Antitumor activity against human HCT-116 cells xenografted in female BALB/c nu-nu mouse assessed as increase in PARP cleavage at 40 mg/kg, po incubated for 48 hrs by Western blot analysis; type: functional, organism-based
HCT-116 [20] = experiment: Antitumor activity against human HCT-116 cells xenografted in female BALB/c nu-nu mouse assessed as tumor growth inhibition at 40 mg/kg, po administered once daily for 3 weeks by vernier caliper analysis; type: functional, organism-based
HCT-116 [21] = experiment: Induction of ROS accumulation in human HCT-116 cells at 100 to 400 nM incubated for 48 hrs by […] staining based flow cytometry analysis; type: functional, cell-based; conditions: dose 100-400 nM
[22] = Cmax in Sprague-Dawley rat at 30 mg/kg, po as submicron emulsion measured after 24 hrs by LC-MS/MS analysis; type: ADME, organism-based; conditions: in vivo
[23] = Half life in Sprague-Dawley rat at 30 mg/kg, po measured after 24 hrs by LC-MS/MS analysis; type: ADME, organism-based; conditions: in vivo
[24] = Tmax in Sprague-Dawley rat at 30 mg/kg, po measured after 24 hrs by LC-MS/MS analysis; type: ADME, organism-based; conditions: in vivo
[25] = Toxicity in female BALB/c nu-nu mouse xenografted with human HCT-116 cells assessed as histopathological changes in kidney at 40 mg/kg, po administered once daily for 3 weeks by H and E staining based analysis; type: organism-based; conditions: in vivo, 504 h
HCT-116 [26] = experiment: Induction of apoptosis in human HCT-116 cells assessed as increase in PARP cleavage incubated for 48 hrs by Western blot analysis; type: functional, cell-based; conditions: dose 100-400 nM
[27] = target: E3 ubiquitin-protein ligase Mdm2 (Homo sapiens) (UniProt Q00987); experiment: Inhibition of MDM2 phosphorylation at ser166 residue in human HCT-116 cells at 100 to 400 nM incubated for 48 hrs by Western blot analysis; type: cell-based; conditions: dose 100-400 nM
Chain of E3 ubiquitin-protein ligase Mdm2 (Homo sapiens) (Q00987 whole entry, looked up): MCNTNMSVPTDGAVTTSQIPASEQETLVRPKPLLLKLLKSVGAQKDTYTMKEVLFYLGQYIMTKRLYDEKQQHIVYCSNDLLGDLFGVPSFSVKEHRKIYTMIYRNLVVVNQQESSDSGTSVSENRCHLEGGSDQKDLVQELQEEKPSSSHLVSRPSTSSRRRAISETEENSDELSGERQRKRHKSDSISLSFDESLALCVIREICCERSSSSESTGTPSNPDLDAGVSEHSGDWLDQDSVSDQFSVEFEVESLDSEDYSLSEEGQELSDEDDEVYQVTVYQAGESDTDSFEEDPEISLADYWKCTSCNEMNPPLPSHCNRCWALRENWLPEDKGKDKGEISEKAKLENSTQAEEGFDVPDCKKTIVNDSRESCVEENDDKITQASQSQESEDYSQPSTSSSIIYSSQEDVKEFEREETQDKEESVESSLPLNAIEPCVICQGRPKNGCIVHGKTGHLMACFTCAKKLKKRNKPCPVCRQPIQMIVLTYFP

[28] = Oral bioavailability in Sprague-Dawley rat at 30 mg/kg measured after 24 hrs by LC-MS/MS analysis; type: ADME, organism-based; conditions: in vivo
CDK1/Cyclin A = CDK1/Cyclin A (Homo sapiens, UniProt P06493); experiment: Inhibition of CDK1/cyclA2 (unknown origin) by ADP-Glo assay; type: protein-complex assay
Chain of CDK1/Cyclin A (P06493 whole entry): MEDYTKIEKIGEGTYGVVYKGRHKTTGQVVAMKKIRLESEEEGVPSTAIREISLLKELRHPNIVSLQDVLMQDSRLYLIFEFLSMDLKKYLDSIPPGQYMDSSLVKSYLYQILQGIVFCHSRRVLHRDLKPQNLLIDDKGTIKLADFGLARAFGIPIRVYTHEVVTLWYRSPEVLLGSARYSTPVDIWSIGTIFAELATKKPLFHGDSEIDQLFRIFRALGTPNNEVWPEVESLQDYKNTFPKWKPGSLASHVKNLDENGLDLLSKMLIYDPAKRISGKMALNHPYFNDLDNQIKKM
Chain of CDK1/Cyclin A (P20248 whole entry, further chain): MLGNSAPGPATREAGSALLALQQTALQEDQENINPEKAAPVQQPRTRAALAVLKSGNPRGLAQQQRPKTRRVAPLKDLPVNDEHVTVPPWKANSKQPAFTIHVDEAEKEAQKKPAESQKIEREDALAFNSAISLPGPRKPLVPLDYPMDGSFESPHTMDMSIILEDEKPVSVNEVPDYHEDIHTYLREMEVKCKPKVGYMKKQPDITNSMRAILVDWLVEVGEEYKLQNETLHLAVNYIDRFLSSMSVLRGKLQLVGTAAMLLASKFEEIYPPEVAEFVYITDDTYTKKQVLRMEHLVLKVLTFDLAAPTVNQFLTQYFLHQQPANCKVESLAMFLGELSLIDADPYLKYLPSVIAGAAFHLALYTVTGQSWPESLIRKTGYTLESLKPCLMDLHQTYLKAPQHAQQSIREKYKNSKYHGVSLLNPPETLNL

Mus musculus = experiment: In vivo inhibition of CDK9/cyclinT1 in female BALB/c nu-nu mouse xenografted with human HCT-116 cells assessed as inhibition of phosphorylation of RNA polymerase II at Ser 2 residue at 40 mg/kg, po incubated for 48 hrs by Western blot analysis; type: functional, organism-based
HCT-116 [29] = experiment: Induction of apoptosis in human HCT-116 cells assessed as increase in total apoptotic cells incubated for 48 hrs by Annexin V-FITC/PI staining based flow cytometry analysis; type: functional, cell-based; conditions: dose 100-400 nM
HCT-116 [30] = experiment: Upregulation of Bax expression in human HCT-116 cells at 100 to 400 nM incubated for 48 hrs by Western blot analysis; type: functional, cell-based; conditions: dose 100-400 nM

CC(C)Oc1cc(F)ccc1-c1ccnc(NC(=O)Nc2cccc(C(=O)N3CCN(C)CC3)c2)c1
Tmax [1]: 30 min | Activity (HCT-116 [2]): Active | Activity (A549): Active | inhibition at 10 µM (CYP2C9): 15.9% | Activity (PANC-1): Active | Activity (HCT-116 [3]): Active | AUC(0-t) at 24 h [4]: 1610 ng·h/mL | IC50 (CDK4/Cyclin D3): 1820 nM | bioavailability [5]: 26.4% | Activity (HCT-116 [6]): Active | Activity [7]: Non-toxic | Activity (HCT-116 [8]): Active | Activity (HCT-116 [9]): inactive | CLint scaled at 100 µM [10]: 317 mL/min/kg | Activity (HCT-116 [11]): Active | Activity [12]: Non-toxic | Activity (HCT-116 [13]): Active | Activity [14]: Non-toxic | AUC(0-inf) [15]: 407 ng·h/mL | Cmax [16]: 302 ng/mL | inhibition (HCT-116 [17]): Active | Vd [18]: 6.52 L/kg | Activity (HCT-116 [19]): Active | Activity (HCT-116 [20]): Active | Activity (HCT-116 [21]): Active | Cmax [22]: 1020 ng/mL | half-life [23]: 47 min | Tmax [24]: 15 min | Activity [25]: Non-toxic | Activity (HCT-116 [26]): Dose-dependent-effect | inhibition [27]: Active | bioavailability [28]: 14.7% | IC50 (CDK1/Cyclin A): 3860 nM | inhibition (Mus musculus): Active | Activity (HCT-116 [29]): Dose-dependent-effect | Activity (HCT-116 [30]): Active
